# PubChem BioAssay (NCI)
#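 The concentration for 50% growth inhibition is given as GI50. TGI: total growth inhibition.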
# Tests used:
# Assay in all cases: NCI anticancer screen, dose series, 384-well format
# NCI-H460 NSCLC = system: NCI-H460 NSCLC
# EKVX NSCLC = system: EKVX NSCLC
# UACC-257 melanoma = system: UACC-257 melanoma
# CCRF-CEM leukemia = system: CCRF-CEM leukemia
# MDA-MB-468 breast = system: MDA-MB-468 breast
# NCI-H522 lung = system: NCI-H522 lung
# TK-10 renal = system: TK-10 renal
# CAKI-1 renal = system: CAKI-1 renal
# COLO 205 colon = system: COLO 205 colon
# A549 NSCLC = system: A549 NSCLC
# OVCAR-3 ovarian = system: OVCAR-3 ovarian
# HS 578T breast = system: HS 578T breast
# SNB-19 CNS = system: SNB-19 CNS
structure (smiles),measurement,setting,value
COc1cc2c(Nc3cc(Cl)c(OC)c(Cl)c3)c(C#N)cnc2cc1OCCCN1CCN(C)CC1,GI50,NCI-H460 NSCLC,1020 nM
same,TGI,NCI-H460 NSCLC,2230 nM
same,GI50,EKVX NSCLC,404 nM
same,TGI,EKVX NSCLC,1740 nM
same,GI50,UACC-257 melanoma,538 nM
same,TGI,UACC-257 melanoma,1640 nM
same,GI50,CCRF-CEM leukemia,239 nM
same,TGI,CCRF-CEM leukemia,486 nM
same,GI50,MDA-MB-468 breast,288 nM
same,TGI,MDA-MB-468 breast,618 nM
same,GI50,NCI-H522 lung,47.7 nM
same,TGI,NCI-H522 lung,234 nM
same,GI50,TK-10 renal,381 nM
same,TGI,TK-10 renal,1620 nM
same,GI50,CAKI-1 renal,180 nM
same,TGI,CAKI-1 renal,1340 nM
same,GI50,COLO 205 colon,765 nM
same,TGI,COLO 205 colon,2050 nM
same,GI50,A549 NSCLC,1100 nM
same,TGI,A549 NSCLC,2370 nM
same,GI50,OVCAR-3 ovarian,323 nM
same,TGI,OVCAR-3 ovarian,1280 nM
same,GI50,HS 578T breast,456 nM
same,TGI,HS 578T breast,1350 nM
same,GI50,SNB-19 CNS,1710 nM
same,TGI,SNB-19 CNS,3.63 µM
